Tests used:
Assay type in all cases: in vivo
[1] = test system: root lesion nematode (RLN), Pratylechus penetrans; experiment: Root Lesion Nematode (RLN) in-vitro mortality test; settings: mortality after 48 hours, about 25 °C, 0.5% DMSO in water
Description: The following Root Lesion Nematode (RLN) test was conducted to compare the activities of S1, R1, and B1.
We carried out an in-vitro experiment to compare activity of S1, R1, and B1 with each other against the root lesion nematode (RLN), Pratylechus penetrans. Each of S1, R1, and B1 were tested at six rates: 62.5, 15.6, 4, 1, 0.25, and 0 ppm (UTC) with three replications of each treatment. Equal volume of nematode suspension was added to an equal volume of each of S1, R1, and B1 dissolved in 0.5% DMSO (dimethyl sulfoxide) in water in 25 mL vials. The treated nematode suspension was incubated at room temperature (about 25 °C) on a shaker (95 RPM). Aliquots of 1 mL of the nematode suspension was evaluated under a microscope for mortality after 48 hours. RLN were counted, and the number of dead and active nematodes was used to calculate % mortality from which lethal concentration (LC) values were generated.

[2] = test system: soybean cyst nematode (SCN): Heterodera glycines second stage juveniles (J2); experiment: Soybean Cyst Nematode (SCN) in-vitro mortality test; settings: mortality after 48 hours of incubation, about 25 °C, 0.5% DMSO in water; probit analysis
Description: The following Soybean Cyst Nematode (SCN) test was conducted to compare the activities of S1, R1, and B1.
We carried out an in-vitro experiment to compare activity of S1, R1, and B1 with each other against the soybean cyst nematode (SCN): Heterodera glycines second stage juveniles (J2). Each of S1, R1, and B1 were tested at six rates: 62.5, 15.6, 4, 1, 0.25, and 0 ppm (untreated control, UTC) with three replications of each treatment. Equal volume of nematode suspension was added to an equal volume of compound dissolved in 0.5% DMSO (dimethyl sulfoxide) in water. The nematode plus compound was incubated at room temperature (about 25 °C) on a shaker at 95 revolutions per minutes (RPM). Aliquots of 0.5 milliliters (mL) of the nematode suspension were evaluated under a microscope for mortality after 48 hours of incubation. SCN J2s were counted, and the number of dead and active nematodes was used to calculate % SCN mortality which was used to generate lethal concentration (LC) values by probit analysis.

[3] = test system: root knot nematode (RKN), Meloidogyne incognita; experiment: Root Knot Nematode (RKN) test on cucumber seedlings in greenhouse, Galling Index converted to % control, EC by probit analysis; settings: based on % control from Galling Index, cucumber, 4,000 J2s, 14 days in Greenhouse, about 27 °C
Description: The following Root Knot Nematode (RKN) test was conducted to compare the activities of S1, R1, and B1.
We conducted an experiment to evaluate comparative bioactivity of S1, R1, and B1 against the root knot nematode (RKN), Meloidogyne incognita. Each of S1, R1, and B1 were tested at […]: 125, 62.5, 31.25, 15.6, 7.8, 3.9, and 2 ppm. Cucumber seeds (Cucumis sativus) were planted in a sandy loam soil in 3-inch pots. After 6 days of germination, the seedlings were treated with the test compounds dissolved in 5% acetone in water. The treated plants were inoculated with 4,000 second stage juveniles (J2s) of M. incognita. Each experimental unit was replicated three times. The inoculated plants were kept in a Greenhouse for 14 days (about 27 °C) before evaluating the amount of root damage (galls) called Galling Index (GI) based on a scale of 0 - 10; where 0 = no galls (100% control), and 10 = maximum galls (no control). The GI was converted to % control using the formula (10 - GI) x 10; where GI = Gall Index. Effective concentration (EC) values based on the % control of the nematode by S1, R1 and B1 were calculated by probit analysis.

[4] = test system: M. incognita; experiment: Residuality test in soil: treated soil aged four weeks, then cucumber seedlings transplanted and inoculated; settings: 1250 g ai/ha applied to bare sandy loam soil, four weeks before transplanting and inoculation; 14 days; four replicates
Description: The molecules in Example Two were compared in a residuality test.
A residuality test was conducted to compare the residual control or persistence of S 1, R1, C1, C2, C3, C4, and C5 in soil. Each compound was applied to a bare sandy loam soil (without plant or nematode) in a 3-inch pot at 1250 g ai/ha. The treated soils were kept in a Greenhouse (temperature 27 °C) under regular irrigation for four weeks. At the end of the four weeks, six-day old cucumber (Cucumis sativus) seedlings were transplanted into the treated soil and inoculated with 4,000 second stage juveniles of M. incognita. Each treatment was replicated four times. The inoculated plants were kept in a Greenhouse for 14 days (temperature 27 °C) before evaluating the amount of root damage (galls) called Galling Index (GI) based on a scale of 0 - 10; where 0 = no galls (100% nematode control), and 10 = maximum galls (no nematode control). The GI were converted to % control using the formula ((10 - GI) x 10); where GI = Gall Index. The data were analyzed by Analysis of Variance using JMP (John's Macintosh Project) statistical software and the means were separated using Tukey's HSD (α = 0.05).

[5] = test system: root knot nematode, Meloidogyne incognita; experiment: Root knot nematode comparative bioactivity test at a single rate, drench application on cucumber seedlings; settings: 600 g ai/ha, 14 days after inoculation, (10 - GI) x 10, three replicates
Description: We carried out an experiment to evaluate comparative bioactivity of S 1, C1, C2, C3, C4, and C5 against the root knot nematode, Meloidogyne incognita. Each compound was tested at 600 grams of active ingredient per hectare (g ai/ha) and was replicated three times. Cucumber seeds (Cucumis sativus) were planted in a sandy loam soil in 3-inch pots. After six (6) days of planting, the seedlings were treated with the test compounds dissolved in 5% acetone in water by drench application. The plants were inoculated with 4,000 second stage juveniles (J2s) of M. incognita. The inoculated plants were kept in a Greenhouse for 14 days (temperature 27 °C) before evaluating the amount of root damage (galls) called Galling Index (GI) based on a scale of 0 - 10; where 0 = no galls (100% nematode control), and 10 = maximum galls (no nematode control). The GI was converted to % nematode control using the formula ((10 - GI) x 10); where GI = Gall Index. The data were analyzed by Analysis of Variance using JMP (John's Macintosh Project) statistical software and the means were separated using Tukey's HSD (α = 0.05).

For CCC(CC)C(C)NC(=O)c1ccoc1Cl (racemic) [Molecule B1, 2-chloro-N-(3-ethylpentan-2-yl)furan-3-carboxamide], the “LC50 (ppm)” value [1] was 24.72 ppm, the “LC50 (ppm)” value [2] was 23.28 ppm and the “EC50 (ppm)” value [3] was 16.84 ppm.

For CC(C)C[C@H](C)NC(=O)c1ccoc1Cl [Molecule C2], the “Mean Percent Control” value [4] was 25.0% and the “Mean Percent Control” value [5] was 54%.

With CC(C)[C@H](C)NC(=O)c1ccoc1Cl [Molecule C3] the “Mean Percent Control” value [4] was 22.5% and the “Mean Percent Control” value [5] was 67%.

C[C@H](NC(=O)c1ccoc1Cl)C1CCCCC1 [Molecule C4] was tested, and the “Mean Percent Control” value [4] was 2.5% and the “Mean Percent Control” value [5] was 25%.

In the case of C[C@H](NC(=O)c1ccoc1Cl)C1CCCC1 [Molecule C5], the “Mean Percent Control” value [4] is reported as 22.5% and the “Mean Percent Control” value [5] is reported as 50%.

For CCC(CC)[C@@H](C)NC(=O)c1ccoc1Cl [Molecule R1, (R)-2-chloro-N-(3-ethylpentan-2-yl)furan-3-carboxamide], the “LC50 (ppm)” value [1] was over 62.5 ppm, the “Mean Percent Control” value [4] was 7.5% and the “LC50 (ppm)” value [2] was over 62.5 ppm. For the same molecule, the “EC50 (ppm)” value [3] was over 125 ppm.

With CCC(CC)[C@H](C)NC(=O)c1ccoc1Cl [Molecule S1, (S)-2-chloro-N-(3-ethylpentan-2-yl)furan-3-carboxamide] the “LC50 (ppm)” value [1] was 6.89 ppm, the “Mean Percent Control” value [4] was 77.5% and the “LC50 (ppm)” value [2] was 1.799 ppm. The “Mean Percent Control” value [5] was 84% and the “EC50 (ppm)” value [3] was 4.95 ppm.
